Data from patent publication US20130269064A1, “INSECTICIDAL COMPOUNDS” (SYNGENTA PARTICIPATIONS AG, priority 2010, published 2013).

How the values were obtained:
Type in all cases: in vivo
Diabrotica balteata = Diabrotica balteata (corn root worm) artificial diet test; conditions: 120 h, 200 ppm (concentration in well 18 ppm), L2 larvae, 5 days, larval mortality and growth regulation
Description: Diabrotica balteata (Corn Root Worm): A 24-well microtiter plate (MTP) with artificial diet was treated with test solutions at an application rate of 200 ppm (concentration in well 18 ppm) by pipetting. After drying, the MTP's were infested with larvae (L2) (6-10 per well). After an incubation period of 5 days, samples were checked for larval mortality, and growth regulation.

Heliothis virescens = Heliothis virescens (tobacco budworm) egg/artificial diet test; conditions: 96 h, 200 ppm (concentration in well 18 ppm), eggs 0-24 h old on artificial diet, 4 days, egg mortality, larval mortality, growth regulation
Description: Heliothis virescens (Tobacco Budworm): Eggs (0-24 h old) were placed in 24-well microtiter plate on artificial diet and treated with test solutions at an application rate of 200 ppm (concentration in well 18 ppm) by pipetting. After an incubation period of 4 days, samples were checked for egg mortality, larval mortality and growth regulation.

Thrips tabaci = Thrips tabaci (onion thrips) sunflower leaf disc test; conditions: foliar, 168 h, 200 ppm sprayed on sunflower leaf discs, mixed ages, 7 days, mortality
Description: Thrips tabaci (Onion Thrips): Sunflower leaf discs were placed on agar in a 24-well microtiter plate and sprayed with test solutions at an application rate of 200 ppm. After drying, the leaf discs were infested with an […] population of mixed ages. After an incubation period of 7 days, samples were checked for mortality.

Tetranychus urticae = Tetranychus urticae (two-spotted spider mite) bean leaf disc test; conditions: foliar, 192 h, 200 ppm sprayed on bean leaf discs, mixed ages, 8 days, egg, larval and adult mortality
Source text: Tetranychus urticae (Two-Spotted Spider Mite): Bean leaf discs on agar in 24-well microtiter plates were sprayed with test solutions at an application rate of 200 ppm. After drying, the leaf discs are infested with mite populations of mixed ages. 8 days later, discs are checked for egg mortality, larval mortality, and adult mortality.

Plutella xylostella = Plutella xylostella (diamond back moth) artificial diet test; conditions: 144 h, 200 ppm (concentration in well 18 ppm), L2 larvae, 6 days, larval mortality and growth regulation
Description: Plutella xylostella (Diamond Back Moth): A 24-well microtiter plate (MTP) with artificial diet was treated with test solutions at an application rate of 200 ppm (concentration in well 18 ppm) by pipetting. After drying, the MTP's were infested with L2 larvae (7-12 per well). After an incubation period of 6 days, samples were checked for larval mortality and growth regulation.

Spodoptera littoralis = Spodoptera littoralis (Egyptian cotton leafworm) cotton leaf disc test; conditions: foliar, 72 h, 200 ppm sprayed on cotton leaf discs, 5 L1 larvae, mortality, feeding behaviour, growth regulation 3 DAT
Source text: Spodoptera littoralis (Egyptian Cotton Leafworm): Cotton leaf discs were placed on agar in a 24-well microtiter plate and sprayed with test solutions at an application rate of 200 ppm. After drying, the leaf discs were infested with 5 L1 larvae. The samples were checked for mortality, feeding behaviour, and growth regulation 3 days after treatment (DAT).

Measured: pest or weed control at 200 ppm

Cc1cc(C#N)ccc1C(=O)Nc1cc(C(=O)Nc2c(C(F)(F)F)c(C(F)(F)C(F)(F)F)nn2C)ccc1C#N [Compound A1, 3-(4-cyano-2-methyl-Benzoyl) amino-4-cyano-N-(2-methyl-5-pentafluoroethyl-4-trifluoromethyl-2H-pyrazol-3-yl)-benzamide]
≥ 80%: Diabrotica balteata | Heliothis virescens | Thrips tabaci | Tetranychus urticae

Cn1nc(C(F)(F)C(F)(F)F)c(C(F)(F)F)c1NC(=O)c1ccc(C#N)c(NC(=O)c2ccccc2)c1 [Compound A2]
not listed: Tetranychus urticae
≥ 80%: all other assays above

Cn1nc(C(F)(F)C(F)(F)F)c(C(F)(F)F)c1NC(=O)c1cccc(NC(=O)c2ccccc2)c1F [Compound B16]
≥ 80%: all assays above

Cn1nc(C(F)(F)C(F)(F)F)c(C(F)(F)F)c1NC(=O)c1cccc(NC(=O)c2ccccc2F)c1 [Compound D1]
not listed: Tetranychus urticae
≥ 80%: all other assays above

Cn1nc(C(F)(F)C(F)(F)F)c(C(F)(F)F)c1NC(=O)c1cccc(NC(=O)c2ccccc2Cl)c1 [Compound D3]
not listed: Tetranychus urticae
≥ 80%: all other assays above

Cn1nc(C(F)(F)C(F)(F)F)c(C(F)(F)F)c1NC(=O)c1cccc(NC(=O)c2cc(Cl)ccc2F)c1 [Compound D8]
≥ 80%: all assays above

Cn1nc(C(F)(F)C(F)(F)F)c(C(F)(F)F)c1NC(=O)c1cccc(NC(=O)c2ccc([N+](=O)[O-])cc2Cl)c1 [Compound D9]
≥ 80%: Diabrotica balteata | Thrips tabaci | Tetranychus urticae

Cn1nc(C(F)(F)C(F)(F)F)c(C(F)(F)F)c1NC(=O)c1cccc(NC(=O)c2ccc(C(F)(F)F)cc2)c1 [Compound D13]
not listed: Tetranychus urticae
≥ 80%: all other assays above

Cn1nc(C(F)(F)C(F)(F)F)c(C(F)(F)F)c1NC(=O)c1cccc(NC(=O)c2ccccc2)c1 [Compound D16]
≥ 80%: Diabrotica balteata | Plutella xylostella | Thrips tabaci | Spodoptera littoralis

Cn1nc(C(F)(F)C(F)(F)F)c(C(F)(F)F)c1NC(=O)c1cccc(NC(=O)c2ccc(F)cc2)c1 [Compound D17]
not listed: Heliothis virescens
≥ 80%: all other assays above

Cn1nc(C(F)(F)C(F)(F)F)c(C(F)(F)F)c1NC(=O)c1cccc(NC(=O)c2ccc(F)cc2Cl)c1 [Compound D19]
not listed: Heliothis virescens
≥ 80%: all other assays above

Cn1nc(C(F)(F)C(F)(F)F)c(C(F)(F)F)c1NC(=O)c1cccc(NC(=O)c2cccc(F)c2F)c1 [Compound D21]
not listed: Tetranychus urticae
≥ 80%: all other assays above

Cn1nc(C(F)(F)C(F)(F)F)c(C(F)(F)F)c1NC(=O)c1cccc(NC(=O)c2ccc(F)cc2F)c1 [Compound D22]
not listed: Tetranychus urticae
≥ 80%: all other assays above
